Experimental data from PubChem BioAssay (NCI).
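Values below derive from 48-hour exposures of cells grown in 96-well plates, with endpoints linearly interpolated between the two concentrations bracketing the appropriate inhibition level. Definition used: TGI = concentration required for complete inhibition of growth.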

Legend:
Assay in all cases: NCI tumour cell line growth inhibition, 48 h
[1] = test system: UACC-257 melanoma
[2] = test system: HCC-2998 colon
[3] = test system: BT-549 breast
[4] = test system: COLO 205 colon
[5] = test system: SK-MEL-28 melanoma
[6] = test system: MCF7 breast
[7] = test system: IGROV1 ovarian
[8] = test system: HT29 colon
[9] = test system: U251 CNS
[10] = test system: LOX IMVI melanoma
[11] = test system: A498 renal
[12] = test system: HOP-62 NSCLC
[13] = test system: EKVX NSCLC
[14] = test system: SW-620 colon
[15] = test system: OVCAR-4 ovarian
[16] = test system: DU-145 prostate
[17] = test system: RPMI-8226 leukemia
[18] = test system: RXF 393 renal

Structure (SMILES) | TGI [1] [µM] | TGI [2] [µM] | TGI [3] [µM] | TGI [4] [µM] | TGI [5] [µM] | TGI [6] [µM] | TGI [7] [µM] | TGI [8] [µM] | TGI [9] [µM] | TGI [10] [µM] | TGI [11] [µM] | TGI [12] [µM] | TGI [13] [µM] | TGI [14] [µM] | TGI [15] [µM] | TGI [16] [µM] | TGI [17] [µM] | TGI [18] [µM]
CCOC(=O)/C(=C\c1ccc(N(C)C)cc1)S(=O)(=O)C(F)(F)C(F)(F)C(F)(F)C(F)(F)F | > 100 | > 100 | > 100 | > 100 | > 100 | > 100 | > 100 | > 100 | > 100 | > 100 | > 100 | > 100 | > 100 | > 100 | > 100 | > 100 | > 100 | –
O=c1c(SSc2coc3cc(F)ccc3c2=O)coc2cc(F)ccc12 | 77 | 35.6 | > 100 | 43.2 | 30.4 | 43.6 | 20.2 | 32.3 | 79 | 8.21 | – | > 100 | 99.3 | 43 | – | > 100 | > 100 | > 100
COc1ccc2cc1Oc1ccc(cc1)C(Sc1ccccc1)CCOC(=O)CC2 (stereo unspecified) | > 100 | > 100 | > 100 | > 100 | > 100 | > 100 | > 100 | > 100 | > 100 | > 100 | > 100 | > 100 | > 100 | > 100 | > 100 | > 100 | > 100 | > 100
Clc1cc2c(c(CSC3=NCN(CC4CC4)CN3)c1)OCOC2 | 33.1 | 28.4 | 51.5 | 28.4 | 38.3 | 93.8 | > 100 | 63.1 | 53.1 | > 100 | 58.2 | 86.7 | 53.4 | 65.1 | > 100 | > 100 | 38.2 | 36.9
Cc1ccc(S(=O)(=O)/N=C(\NN)Nc2ccc(Cl)cc2)cc1 | > 100 | – | > 100 | > 100 | > 100 | > 100 | > 100 | > 100 | > 100 | > 100 | > 100 | > 100 | > 100 | > 100 | > 100 | > 100 | > 100 | > 100
FC(F)(F)c1ccccc1N1CCN(c2nc(-c3cccs3)nc3ccc(Br)cc23)CC1 | > 100 | 25 | > 100 | 65.1 | > 100 | 17.5 | > 100 | > 100 | > 100 | > 100 | > 100 | > 100 | > 100 | > 100 | > 100 | > 100 | 34.5 | –
Cc1ccc(OCC2OC(n3cnc4nc(Cl)nc(Cl)c43)CC2Oc2ccc(C)cc2)cc1 (stereo unspecified) | 29.6 | 12.2 | 30.4 | 27.6 | 14.1 | 20.6 | 19.7 | 20.4 | 55.5 | 3.45 | 72.2 | 34.8 | 34 | 28 | 56.1 | 27.2 | 9.35 | 15.7
ClC(Cl)(Cl)C1=N[C@H]2[C@H](Br)[C@@H]3O[C@@H](c4ccccc4)[C@H](c4ccccc4)O[C@@H]3[C@H]2O1 | 37.3 | 28.5 | 53 | 30 | 37.1 | 32.6 | 30.9 | 58.1 | 31.2 | 33.3 | 31.3 | 41.3 | 50.3 | 44.8 | 43.8 | 73.7 | 41 | 45.4
NC(=O)c1nnc2cc(F)ccc2c1N | > 100 | > 100 | > 100 | > 100 | – | > 100 | > 100 | > 100 | > 100 | > 100 | > 100 | > 100 | > 100 | > 100 | > 100 | > 100 | > 100 | –
COC(=O)c1cc(NC(=O)c2cc(NC(=O)c3cc([N+](=O)[O-])cn3C)cn2C)cn1C | – | – | > 100 | > 100 | > 100 | > 100 | – | > 100 | > 100 | > 100 | > 100 | > 100 | > 100 | > 100 | > 100 | > 100 | > 100 | > 100
COc1ccc2[nH]c(Cl)c(/C=C3/C(=O)Nc4cc(C)c(OC)cc43)c2c1 | 23.6 | 17.2 | 21.5 | 5.9 | 22.1 | 14.4 | 17.1 | 15 | 18 | 17.5 | 19.2 | 18.5 | 22.7 | 18.1 | – | 29.4 | > 100 | 27.9
NCCCn1c2ccccc2c2c3c(c4c(c21)CCC(O)CC4)C(=O)NC3=O (stereo unspecified) | 29.7 | 4.24 | 20.2 | – | 13.1 | 3.58 | 21.5 | 4.99 | 13.1 | 2.92 | 22.8 | 15.9 | 23.7 | 5.19 | 5.44 | 14.1 | 14.6 | 13.6
CCCCCC(=O)N[C@@H](c1ccccc1)C(O)C(=O)OC1C[C@@]2(O)C(OC(=O)c3ccccc3)C3[C@](C)(C(=O)[C@H](O)C(=C1C)C2(C)C)C(OC1OCC(O)C(O)C1O)C[C@H]1OC[C@@]31OC(C)=O (stereo partly specified) | > 100 | 10.5 | > 100 | 8.15 | > 100 | > 56.7 | > 100 | > 36.8 | > 100 | – | > 100 | > 75.8 | > 100 | > 100 | > 100 | 13.4 | > 100 | > 41
